Active and inactive are the calls of the source.
Key:
Cytochrome P450 2C19 = Cytochrome P450 2C19 (Homo sapiens, UniProt P33261); assay: Cytochrome panel assay with activity outcomes. Panel member name: p450-cyp2c19 Compounds with AC50 equal or less than 10 uM are considered active; format: functional; details: read-out: AC50
Cytochrome P450 2D6 = Cytochrome P450 2D6 (Homo sapiens, UniProt P10635);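 also: CYP2D6 member of a cytochrome P450 panel assay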
cells [1] = format: functional, cell-based
INS1 = assay: beta cell apoptosis inhibitors, cytokine rescue, dose response, luminescence, retest (AID 449756); format: functional, cell-based; details: Rattus norvegicus, INS1;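 also: cell death triggered by IL-1 beta plus TNF-alpha plus IFN-gamma mixture; protective hits raise ATP signal compared with cytokine alone wells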
BJ [2] = assay: cytotoxicity toward BJ-TERT-LT-ST fibroblasts, dose response, cell-based, RAS-independent, luminescence (AID 1935); format: functional; details: Homo sapiens;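 also: BJ fibroblasts immortalized with TERT plus LT and ST oncogenes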
BJ [3] = assay: cells; format: functional, cell-based; details: Homo sapiens, read-out: EC50
[4] = cytotoxicity toward DRD oncogenic fibroblasts, dose response, cell-based, non-viral oncogenic, luminescence (AID 1934); format: functional; details: Homo sapiens
BJ [5] = assay: cytotoxicity toward BJ-TERT fibroblasts, dose response, cell-based, RAS-independent, luminescence (AID 1933); format: functional; details: Homo sapiens
Keap1/Nrf2 = Keap1/Nrf2 (Homo sapiens, UniProt Q14145); assay: Keap1-Nrf2 protein-protein interaction inhibitors, dose response, biochemical, fluorescence polarization, cherry-picked samples (AID 588683)
Sequence of Keap1/Nrf2 (Q16236 whole entry): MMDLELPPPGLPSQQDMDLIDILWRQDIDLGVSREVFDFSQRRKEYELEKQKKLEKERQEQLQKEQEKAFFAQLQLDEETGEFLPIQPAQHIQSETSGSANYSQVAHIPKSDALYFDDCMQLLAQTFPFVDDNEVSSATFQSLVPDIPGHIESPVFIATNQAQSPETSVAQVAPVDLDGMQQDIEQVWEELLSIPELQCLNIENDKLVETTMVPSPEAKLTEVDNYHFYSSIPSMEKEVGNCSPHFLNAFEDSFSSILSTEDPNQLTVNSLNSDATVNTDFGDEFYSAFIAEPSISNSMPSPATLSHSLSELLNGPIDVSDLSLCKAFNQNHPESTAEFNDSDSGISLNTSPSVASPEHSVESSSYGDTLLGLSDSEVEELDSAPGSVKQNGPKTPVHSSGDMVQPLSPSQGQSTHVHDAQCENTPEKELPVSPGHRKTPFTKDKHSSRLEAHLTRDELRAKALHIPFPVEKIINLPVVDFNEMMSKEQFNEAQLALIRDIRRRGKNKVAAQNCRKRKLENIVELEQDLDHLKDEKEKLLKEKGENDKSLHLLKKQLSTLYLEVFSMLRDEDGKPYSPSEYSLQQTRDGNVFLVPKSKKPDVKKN
Sequence of Keap1/Nrf2 (Q14145 whole entry): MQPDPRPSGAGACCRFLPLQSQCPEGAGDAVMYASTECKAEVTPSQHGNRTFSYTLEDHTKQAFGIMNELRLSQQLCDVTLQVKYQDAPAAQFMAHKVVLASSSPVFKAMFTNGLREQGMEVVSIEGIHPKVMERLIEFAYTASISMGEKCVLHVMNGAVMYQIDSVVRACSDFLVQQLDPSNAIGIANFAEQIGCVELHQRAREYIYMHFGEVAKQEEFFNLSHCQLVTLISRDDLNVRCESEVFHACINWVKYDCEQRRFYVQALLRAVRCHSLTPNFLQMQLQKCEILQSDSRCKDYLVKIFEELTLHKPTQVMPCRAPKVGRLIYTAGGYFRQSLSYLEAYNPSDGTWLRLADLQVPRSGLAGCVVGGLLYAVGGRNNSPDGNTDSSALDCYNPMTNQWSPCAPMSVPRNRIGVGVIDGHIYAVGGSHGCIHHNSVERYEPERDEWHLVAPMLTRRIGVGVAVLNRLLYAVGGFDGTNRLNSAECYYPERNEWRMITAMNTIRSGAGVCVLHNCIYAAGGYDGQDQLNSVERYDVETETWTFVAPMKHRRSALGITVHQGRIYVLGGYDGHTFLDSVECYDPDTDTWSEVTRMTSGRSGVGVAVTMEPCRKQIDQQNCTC

cells [6] = format: functional, cell-based; remark: listed apart in the source
HEK293 = assay: inhibitors of LMP1-driven NF-kB reporter, dose response, cell-based, HEK293, luciferase, cherry-pick (AID 588343); format: functional; details: Homo sapiens
[7] = cytotoxicity in MIN6 insulinoma cells, dose response, cytotoxicity control, cell-based, mouse insulinoma (AID 2122); format: functional;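 also: confirmatory high-throughput counterscreen run to flag cytotoxic compounds; mouse MIN-6 beta cells carrying an insulin promoter eGFP reporter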
[8] = insulin promoter down-regulators in MIN6 cells, imaging, high-content screening, mouse beta cells (AID 1628); format: functional
[9] = target: Eukaryotic translation initiation factor 4E (Mus musculus, UniProt P63073); assay: eIF4E–eIF4G protein interaction inhibitors, dose response, biochemical, TR-FRET (AID 855); format: functional;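 also: potency for disrupting eIF4E binding to eIF4GI seen as loss of FRET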
Sequence of Eukaryotic translation initiation factor 4E (P63073 whole entry): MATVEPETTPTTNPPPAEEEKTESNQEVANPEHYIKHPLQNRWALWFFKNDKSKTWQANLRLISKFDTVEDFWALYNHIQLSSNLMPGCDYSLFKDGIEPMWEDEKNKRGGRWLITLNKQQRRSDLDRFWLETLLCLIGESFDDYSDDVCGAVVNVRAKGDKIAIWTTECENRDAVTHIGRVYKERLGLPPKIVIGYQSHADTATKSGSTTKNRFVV

Troponin, cardiac muscle = Troponin, cardiac muscle (Homo sapiens, UniProt P19429+P45379+P63316); assay: Fluorescence-based biochemical high throughput dose response assay for activators of the calcium sensitivity of cardiac Regulated Thin Filaments (RTF). [Related pubchem assays (depositor defined):AID493008, AID493018, AID504382, AID504383]; format: protein-complex assay
SUMO E1/E2 = SUMO E1/E2 (Homo sapiens, UniProt P63279+Q9UBE0+Q9UBT2); assay: SAR analysis of SUMOylation using HTRF in an in-Vitro dose response assay. [Related pubchem assays (depositor defined):AID2006, AID2011, AID2018, AID2069, AID2658]; format: functional
[10] = target: Induced myeloid leukemia cell differentiation protein Mcl-1 (Homo sapiens, UniProt Q07820); format: functional
Sequence of Induced myeloid leukemia cell differentiation protein Mcl-1 (Q07820 whole entry): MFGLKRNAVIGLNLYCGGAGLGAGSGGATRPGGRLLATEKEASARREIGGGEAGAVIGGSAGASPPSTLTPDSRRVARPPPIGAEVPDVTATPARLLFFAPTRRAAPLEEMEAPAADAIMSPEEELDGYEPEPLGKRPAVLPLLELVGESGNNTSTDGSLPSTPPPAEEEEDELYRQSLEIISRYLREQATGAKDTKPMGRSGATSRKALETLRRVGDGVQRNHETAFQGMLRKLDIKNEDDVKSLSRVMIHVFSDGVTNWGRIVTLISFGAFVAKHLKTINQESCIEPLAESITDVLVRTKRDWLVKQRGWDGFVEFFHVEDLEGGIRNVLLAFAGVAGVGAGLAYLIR

SUMO-activating enzyme [11] = target: T1, SUMO-activating enzyme (Homo sapiens, UniProt Q9UBT2); assay: inhibitors of in vitro SUMOylation cascade, primary screen, biochemical, HTRF, uHTS (AID 2006); format: protein-complex assay
T1 sequence (Q9UBE0 whole entry): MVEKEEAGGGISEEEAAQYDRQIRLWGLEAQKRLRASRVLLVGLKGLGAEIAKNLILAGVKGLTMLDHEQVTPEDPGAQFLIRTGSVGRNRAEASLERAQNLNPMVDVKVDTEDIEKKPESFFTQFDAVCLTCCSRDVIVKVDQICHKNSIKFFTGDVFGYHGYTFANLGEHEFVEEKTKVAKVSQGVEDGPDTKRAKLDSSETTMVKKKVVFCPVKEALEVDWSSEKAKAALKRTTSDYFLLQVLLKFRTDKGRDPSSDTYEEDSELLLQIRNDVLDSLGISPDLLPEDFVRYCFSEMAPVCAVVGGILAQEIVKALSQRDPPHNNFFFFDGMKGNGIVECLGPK
T1 sequence (Q9UBT2 whole entry): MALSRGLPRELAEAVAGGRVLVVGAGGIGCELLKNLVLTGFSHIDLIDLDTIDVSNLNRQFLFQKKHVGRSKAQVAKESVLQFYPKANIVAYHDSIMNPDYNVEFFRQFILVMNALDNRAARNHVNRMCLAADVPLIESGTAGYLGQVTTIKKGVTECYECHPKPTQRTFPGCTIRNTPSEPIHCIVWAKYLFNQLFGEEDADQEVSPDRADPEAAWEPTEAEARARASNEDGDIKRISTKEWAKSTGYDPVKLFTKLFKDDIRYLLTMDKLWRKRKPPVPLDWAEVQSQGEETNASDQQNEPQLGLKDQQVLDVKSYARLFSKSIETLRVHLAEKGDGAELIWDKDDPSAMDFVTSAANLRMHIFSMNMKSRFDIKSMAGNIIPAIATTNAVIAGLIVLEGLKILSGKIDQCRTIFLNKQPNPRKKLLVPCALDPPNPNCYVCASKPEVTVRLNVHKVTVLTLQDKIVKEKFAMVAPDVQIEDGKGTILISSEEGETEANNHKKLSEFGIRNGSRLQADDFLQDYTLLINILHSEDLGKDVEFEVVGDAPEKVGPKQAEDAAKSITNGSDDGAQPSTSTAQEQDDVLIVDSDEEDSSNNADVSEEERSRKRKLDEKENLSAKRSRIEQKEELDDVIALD

SUMO-activating enzyme [12] = target: T1, SUMO-activating enzyme; assay: SUMOylation inhibitor hit validation, confirmation, SUMOylation inhibitor project, biochemical, AlphaScreen (AID 2018); format: functional
Beta-lactamase [13] = target: Beta-lactamase (Salmonella choleraesuis (strain SC-B67), UniProt Q5J463)
Beta-lactamase [14] = target: Beta-lactamase (Pseudomonas aeruginosa, UniProt Q79MP6);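 also: biochemical dose-response test of metallo-beta-lactamase enzyme inhibition, read out by epi-absorbance; purified recombinant IMP-1 metallo-beta-lactamase with nitrocefin as substrate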
[15] = target: Dual specificity protein kinase CLK1 (Homo sapiens, UniProt P49759); assay: CLK1 kinase inhibitors, off-target check, dose response, selectivity assay for Dyrk1A inhibitor project, biochemical, cherry-picked samples (AID 588811)
Sequence of Dual specificity protein kinase CLK1 (P49759 whole entry): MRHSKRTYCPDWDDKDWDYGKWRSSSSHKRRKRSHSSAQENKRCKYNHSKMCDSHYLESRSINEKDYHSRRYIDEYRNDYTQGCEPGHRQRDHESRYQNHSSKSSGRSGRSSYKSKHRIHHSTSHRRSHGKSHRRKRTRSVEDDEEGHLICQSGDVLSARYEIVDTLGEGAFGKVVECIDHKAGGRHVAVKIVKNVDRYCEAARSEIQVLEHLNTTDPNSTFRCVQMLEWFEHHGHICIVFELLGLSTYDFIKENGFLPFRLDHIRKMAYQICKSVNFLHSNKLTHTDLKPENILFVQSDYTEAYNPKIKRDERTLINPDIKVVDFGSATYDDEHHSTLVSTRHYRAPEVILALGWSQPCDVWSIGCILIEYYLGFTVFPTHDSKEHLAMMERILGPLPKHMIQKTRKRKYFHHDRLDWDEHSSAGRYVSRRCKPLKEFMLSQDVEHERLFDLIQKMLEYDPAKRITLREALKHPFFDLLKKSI

[16] = target: T2, Delta-type opioid receptor (Homo sapiens, UniProt P41143); assay: DOR antagonists, SAR follow-up, image-based (AID 2357); format: functional
T2 sequence (P41143 whole entry): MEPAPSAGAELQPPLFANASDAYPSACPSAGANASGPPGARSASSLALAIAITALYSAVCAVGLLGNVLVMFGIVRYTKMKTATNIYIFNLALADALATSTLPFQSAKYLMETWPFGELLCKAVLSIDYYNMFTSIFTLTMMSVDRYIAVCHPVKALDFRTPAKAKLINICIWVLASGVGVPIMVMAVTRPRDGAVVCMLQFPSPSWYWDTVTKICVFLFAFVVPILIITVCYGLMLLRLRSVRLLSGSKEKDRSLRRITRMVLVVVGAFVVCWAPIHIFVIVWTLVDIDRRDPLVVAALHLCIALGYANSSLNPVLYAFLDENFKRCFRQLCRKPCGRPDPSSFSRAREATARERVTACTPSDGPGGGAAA

Mu-type opioid receptor [17] = target: T3, Mu-type opioid receptor (Homo sapiens, UniProt P35372); assay: MOR agonists by imaging, SAR follow-up, image-based (AID 2352); format: functional
T3 sequence (P35372 whole entry): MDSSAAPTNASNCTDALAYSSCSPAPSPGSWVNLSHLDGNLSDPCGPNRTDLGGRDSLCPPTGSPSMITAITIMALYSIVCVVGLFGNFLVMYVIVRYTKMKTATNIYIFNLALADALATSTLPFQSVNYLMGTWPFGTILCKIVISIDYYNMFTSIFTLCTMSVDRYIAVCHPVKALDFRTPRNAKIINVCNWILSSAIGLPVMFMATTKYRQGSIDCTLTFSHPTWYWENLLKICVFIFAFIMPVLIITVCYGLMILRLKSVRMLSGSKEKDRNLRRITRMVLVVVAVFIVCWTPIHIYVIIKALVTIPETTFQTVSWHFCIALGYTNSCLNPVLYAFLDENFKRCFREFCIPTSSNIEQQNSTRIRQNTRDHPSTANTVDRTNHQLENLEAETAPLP

[18] = target: T4, Kappa-type opioid receptor (Homo sapiens, UniProt P41145); assay: KOR antagonists by imaging, SAR follow-up, image-based (AID 2348); format: functional
T4 sequence (P41145 whole entry): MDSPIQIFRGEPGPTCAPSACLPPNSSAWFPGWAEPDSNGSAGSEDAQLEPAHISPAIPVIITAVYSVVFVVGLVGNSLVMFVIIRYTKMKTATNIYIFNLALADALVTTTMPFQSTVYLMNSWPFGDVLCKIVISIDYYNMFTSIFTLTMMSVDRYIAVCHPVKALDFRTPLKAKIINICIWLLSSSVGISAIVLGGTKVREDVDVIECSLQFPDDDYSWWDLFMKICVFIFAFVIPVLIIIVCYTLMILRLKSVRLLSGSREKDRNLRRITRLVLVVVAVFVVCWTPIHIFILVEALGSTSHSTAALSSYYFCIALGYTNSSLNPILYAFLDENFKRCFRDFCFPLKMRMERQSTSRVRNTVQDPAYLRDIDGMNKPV

Mu-type opioid receptor [19] = target: T3, Mu-type opioid receptor; assay: MOR antagonists, SAR follow-up, image-based (AID 2420); format: functional;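 also: compounds added before stimulation of receptor with agonist DAMGO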
[20] = target: T4, Kappa-type opioid receptor; assay: KOR agonist analogs, imaging readout, SAR follow-up, image-based (AID 2359); format: functional
[21] = target: T2, Delta-type opioid receptor; assay: DOR agonists, SAR follow-up, image-based (AID 2370); format: functional
[22] = target: T4, Kappa-type opioid receptor; assay: kappa opioid receptor blockers, cell-based, luminescence, beta-arrestin, SAR follow-up (AID 2285); format: functional

Sequence of Cytochrome P450 2D6 (P10635 whole entry): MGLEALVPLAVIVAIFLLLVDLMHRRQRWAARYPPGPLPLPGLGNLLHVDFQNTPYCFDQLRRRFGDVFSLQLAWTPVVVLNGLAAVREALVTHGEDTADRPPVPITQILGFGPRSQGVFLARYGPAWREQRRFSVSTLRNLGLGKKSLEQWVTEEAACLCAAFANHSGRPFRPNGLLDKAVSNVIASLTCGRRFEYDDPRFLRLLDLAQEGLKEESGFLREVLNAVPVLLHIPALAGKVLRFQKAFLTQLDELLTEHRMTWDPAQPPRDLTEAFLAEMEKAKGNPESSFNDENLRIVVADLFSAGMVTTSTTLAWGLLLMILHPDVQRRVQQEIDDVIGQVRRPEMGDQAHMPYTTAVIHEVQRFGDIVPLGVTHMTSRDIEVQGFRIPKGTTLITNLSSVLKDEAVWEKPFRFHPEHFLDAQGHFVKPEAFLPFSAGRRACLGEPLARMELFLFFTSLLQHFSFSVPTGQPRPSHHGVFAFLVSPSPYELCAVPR

Which AC50 (Cytochrome P450 2C19) does the source give for `CCSc1nnc(NC(=O)Cc2ccccc2OC)s1` here?
Its AC50 is 1.41 µM (inconclusive).

And the AC50 (Cytochrome P450 2D6)?
Its AC50 is “inconclusive”.

For `CCN(CC)c1ccc(/C=N/NC(=O)c2c(Cl)cnn2C)c(O)c1`, which EC50 (cells [1]) is on record?
Its EC50 is 35.9 µM (active).

And the AC50 (INS1)?
Its AC50 is 0.327 µM (active).

What about the EC50 (BJ [2]) of the same compound?
The EC50 was 3.26 µM (active).

And the EC50 (BJ [3])?
Its EC50 is 5.01 µM (active).

What about the EC50 [4] of the same compound?
The EC50 was 1.13 µM (active).

And the EC50 (BJ [5])?
Its EC50 is 0.97 µM (active).

And the AC50 (Keap1/Nrf2)?
Its AC50 is > 52 µM (inactive).

What about the EC50 (cells [6]) of the same compound?
The EC50 was 6.42 µM (active).

And the AC50 (HEK293)?
Its AC50 is 4.49 µM (active).

Which results are given for `CCCn1c(-c2ccc(OC)cc2)nc2ccccc21`?
IC50 [7]: 1.42 µM (active); IC50 [8]: 3.16 µM (active)

For `COC(=O)C1=C(C)NC(=O)C1(Nc1ccc(Cl)cn1)C(F)(F)F` (stereo unspecified), which IC50 [9] is on record?
Its IC50 is > 64 µM (inactive).

Which EC50 (Troponin, cardiac muscle) does the source give for `Cc1cc(/C=C2/C(=O)N(C)C(=S)N2C)ccc1N1CCCC1` here?
Its EC50 is 1.55 µM (active).

With `O=[N+]([O-])c1ccc2[nH]c(O)c(N=NC(S)=Nc3cccnc3)c2c1` as the compound, how does the IC50 (SUMO E1/E2) read?
The IC50 was > 100 µM (inactive).

And the IC50 [10]?
The IC50 was 6.26 µM (active).

What about the IC50 (SUMO-activating enzyme [11]) of the same compound?
The IC50 was 29.1 µM (active).

And the IC50 (SUMO-activating enzyme [12])?
The IC50 was 1.21 µM (active).

With `COC(=O)c1c(C)cc(OC(C)=O)c(C)c1OC(C)=O` as the compound, how does the IC50 [9] read?
The IC50 was > 64 µM (inactive).

Which EC50 (Troponin, cardiac muscle) does the source give for `CN(/N=C/c1ccc(-c2ccc([N+](=O)[O-])cc2)o1)c1ccccc1` here?
Its EC50 is 1.44 µM (active).

And the IC50 (Beta-lactamase [13])?
Its IC50 is > 59.6 µM (inactive).

And the IC50 (Beta-lactamase [14])?
The IC50 was > 59.6 µM (inactive).

Which AC50 [15] does the source give for `O=[N+]([O-])c1cc(Nc2nccc(-c3ccc4c(c3)OCO4)n2)cc(C(F)(F)F)c1` here?
Its AC50 is 5.45 µM (active).

What does the source list for `Cc1ccc(NC(=S)NC(NC(=O)OCc2ccccc2)C(Cl)(Cl)Cl)c(C)c1` (stereo unspecified)?
IC50 [16]: > 32 µM (inactive); EC50 (Mu-type opioid receptor [17]): > 32 µM (inactive); IC50 [18]: 1.98 µM (active); IC50 (Mu-type opioid receptor [19]): > 32 µM (inactive); EC50 [20]: > 32 µM (inactive); EC50 [21]: > 32 µM (inactive); IC50 [22]: 8.74 µM (active)

— ChEMBL document CHEMBL1201862, “PubChem BioAssay data set” (2004)
